Data: patent publication US5977133A, “Pyridone antibiotic with improved safety profile” (priority 1998, dated 1999)
Where a name gives a salt, the structure may show the parent alone.

Legend:
Format in all cases: cell-based
E. faecium (VanS) = test: In vitro MIC, agar dilution; details: Enterococcus faecium
C. freundii = test: In vitro MIC, agar dilution; details: Citrobacter freundii
E. faecalis (VanS) = test: In vitro MIC, agar dilution; details: Enterococcus faecalis
Legionella spp. = test: microbe, parasite or virus in culture; details: Legionella
N. gonorrhoeae = test: In vitro MIC, agar dilution; details: Neisseria gonorrhoeae
M. pneumoniae = test: In vitro MIC, agar dilution; details: Mycoplasmoides pneumoniae, read-out: MIC Range
H. pylori = test: In vitro MIC, agar dilution; details: Helicobacter pylori
Klebsiella spp. = test: In vitro MIC, agar dilution; details: Klebsiella
S. epidermidis (CiproR) = test: In vitro MIC, agar dilution; details: Staphylococcus epidermidis
Providencia spp. = test: In vitro MIC, agar dilution; details: Providencia
M. avium = test: In vitro MIC, agar dilution; details: Mycobacterium avium
M. catarrhalis = test: In vitro MIC, agar dilution; details: Moraxella catarrhalis
S. pneumoniae (PenR) = test: In vitro MIC, agar dilution; details: Streptococcus pneumoniae
S. pyogenes = test: In vitro MIC, agar dilution; details: Streptococcus pyogenes
Enterobacter spp. = test: In vitro MIC, agar dilution; details: Enterobacter
C. difficile = test: In vitro MIC, agar dilution; details: Clostridioides difficile
S. aureus (CiproR) = test: In vitro MIC, agar dilution; details: Staphylococcus aureus
Salmonella spp. = test: In vitro MIC, agar dilution; details: 23 isolates
Method: (§1) Each plate was inoculated with 1:100 (or 1:10 for slow-growing strains, primarily Micrococcus and Streptococcus) dilutions of up to 32 different microorganisms, using a Steers replicator block calibrated to deliver approximately 10^4 colony forming units (CFU's). The inoculated plates were incubated at from about 35° C. to about 37 ° C. for approximately 20-24 hours. In addition, a control plate using BHI agar containing no test compound was prepared and incubated at the beginning and at the end of each test. The quinolone antibacterial ciprofloxacin was used as a control ("Cntl").
(§2) The numbers below the microorganism species indicate the nunbers of isolates tested. […] The MIC is defined as the lowest concentration of test compound yielding no growth (a slight haze or sparsely isolated colonies at the inoculum spot) as compared to the growth control containing no test compound.

E. coli = test: In vitro MIC, agar dilution; details: Escherichia coli, 25 isolates
Method: as §1, §2

S. epidermidis (CiproS) = test: In vitro MIC, agar dilution; details: Staphylococcus epidermidis
E. faecium (CiproS) = test: In vitro MIC, agar dilution; details: Enterococcus faecium
S. pneumoniae (PenS) = test: In vitro MIC, agar dilution; details: Streptococcus pneumoniae
H. influenzae = test: In vitro MIC, agar dilution; details: Haemophilus influenzae
P. aeruginosa (CiproR) = test: In vitro MIC, agar dilution; details: Pseudomonas aeruginosa
Enterococcus spp. (VanR) = test: In vitro MIC, agar dilution; details: Enterococcus
B. fragilis = test: In vitro MIC, agar dilution; details: Bacteroides fragilis
C. perfringens = test: microbe, parasite or virus in culture; details: Clostridium perfringens
S. aureus (CiproS) = test: In vitro MIC, agar dilution; details: Staphylococcus aureus
P. mirabilis = test: In vitro MIC, agar dilution; details: Proteus mirabilis
S. pneumoniae (CiproR) = test: In vitro MIC, agar dilution; details: Streptococcus pneumoniae, read-out: MIC Range
P. aeruginosa (CiproS) = test: In vitro MIC, agar dilution; details: Pseudomonas aeruginosa
Shigella spp. = test: microbe, parasite or virus in culture; details: read-out: MIC Range
E. faecium (CiproR) = test: In vitro MIC, agar dilution; details: Enterococcus faecium, read-out: MIC Range

Cc1c(N2C[C@@H]3CCCN[C@@H]3C2)c(F)cn2c(=O)c(C(=O)O)cc(C3CC3)c12 [Example 4, 1-cyclopropyl-8-(S,S-2,8-diaza-8-bicyclo[4.3.0]nonyl)-7-fluoro-4H-9-methyl-4-oxo-quinolizine-3-carboxylic acid hydrochloride]
MIC50 (E. faecium (VanS)): 0.5 µg/mL
MIC90 (E. faecium (VanS)): 1 µg/mL
MIC (E. faecium (VanS); read-out: MIC Range): 0.12 to 1 µg/mL
MIC50 (C. freundii): 0.03 µg/mL
MIC90 (C. freundii): 0.25 µg/mL
MIC (C. freundii; read-out: MIC Range): 0.015 to 0.25 µg/mL
MIC50 (E. faecalis (VanS)): 0.12 µg/mL
MIC90 (E. faecalis (VanS)): 0.25 µg/mL
MIC (E. faecalis (VanS); read-out: MIC Range): 0.12 to 0.25 µg/mL
MIC50 (Legionella spp.): 0.25 µg/mL
MIC90 (Legionella spp.): 0.25 µg/mL
MIC (Legionella spp.; read-out: MIC Range): 0.25 to 0.5 µg/mL
MIC50 (N. gonorrhoeae): 2 ng/mL
MIC90 (N. gonorrhoeae): 0.015 µg/mL
MIC (N. gonorrhoeae; read-out: MIC Range): 2 to 15 ng/mL
MIC (M. pneumoniae): 0.015 to 0.03 µg/mL
MIC50 (H. pylori): 0.12 µg/mL
MIC90 (H. pylori): 0.25 µg/mL
MIC (H. pylori; read-out: MIC Range): 0.06 to 0.25 µg/mL
MIC50 (Klebsiella spp.): 0.06 µg/mL
MIC90 (Klebsiella spp.): 0.06 µg/mL
MIC (Klebsiella spp.; read-out: MIC Range): 0.008 to 0.25 µg/mL
MIC50 (S. epidermidis (CiproR)): 0.25 µg/mL
MIC90 (S. epidermidis (CiproR)): 0.5 µg/mL
MIC (S. epidermidis (CiproR); read-out: MIC Range): 0.12 to 4 µg/mL
MIC50 (Providencia spp.): 0.03 µg/mL
MIC90 (Providencia spp.): 0.12 µg/mL
MIC (Providencia spp.; read-out: MIC Range): 0.008 to 0.25 µg/mL
MIC50 (M. avium): 0.25 µg/mL
MIC90 (M. avium): 1 µg/mL
MIC (M. avium; read-out: MIC Range): 0.25 to 4 µg/mL
MIC50 (M. catarrhalis): 0.015 µg/mL
MIC90 (M. catarrhalis): 0.03 µg/mL
MIC (M. catarrhalis; read-out: MIC Range): 0.015 to 0.03 µg/mL
MIC50 (S. pneumoniae (PenR)): 0.03 µg/mL
MIC90 (S. pneumoniae (PenR)): 0.03 µg/mL
MIC (S. pneumoniae (PenR); read-out: MIC Range): 0.008 to 0.03 µg/mL
MIC50 (S. pyogenes): 0.06 µg/mL
MIC90 (S. pyogenes): 0.06 µg/mL
MIC (S. pyogenes; read-out: MIC Range): 0.03 to 0.06 µg/mL
MIC50 (Enterobacter spp.): 0.03 µg/mL
MIC90 (Enterobacter spp.): 0.12 µg/mL
MIC (Enterobacter spp.; read-out: MIC Range): 0.015 to 0.12 µg/mL
MIC50 (C. difficile): 0.25 µg/mL
MIC90 (C. difficile): 0.25 µg/mL
MIC (C. difficile; read-out: MIC Range): 0.03 to 0.25 µg/mL
MIC50 (S. aureus (CiproR)): 0.06 µg/mL
MIC90 (S. aureus (CiproR)): 0.25 µg/mL
MIC (S. aureus (CiproR); read-out: MIC Range): 0.008 to 0.5 µg/mL
MIC (Salmonella spp.): 0.004 to 0.12 µg/mL
MIC50 (Salmonella spp.; read-out: MIC50): 0.03 µg/mL
MIC90 (Salmonella spp.; read-out: MIC90): 0.06 µg/mL
MIC (E. coli): ≤ 8 ng/mL
MIC50 (E. coli; read-out: MIC50): ≤ 8 ng/mL
MIC90 (E. coli; read-out: MIC90): ≤ 8 ng/mL
MIC50 (S. epidermidis (CiproS)): 0.03 µg/mL
MIC90 (S. epidermidis (CiproS)): 0.03 µg/mL
MIC (S. epidermidis (CiproS); read-out: MIC Range): 0.015 to 0.03 µg/mL
MIC50 (E. faecium (CiproS)): 0.5 µg/mL
MIC90 (E. faecium (CiproS)): 1 µg/mL
MIC (E. faecium (CiproS); read-out: MIC Range): 0.25 to 1 µg/mL
MIC50 (S. pneumoniae (PenS)): 0.06 µg/mL
MIC90 (S. pneumoniae (PenS)): 0.12 µg/mL
MIC (S. pneumoniae (PenS); read-out: MIC Range): 0.06 to 0.12 µg/mL
MIC50 (H. influenzae): 0.015 µg/mL
MIC90 (H. influenzae): 0.015 µg/mL
MIC (H. influenzae; read-out: MIC Range): 4 to 15 ng/mL
MIC50 (P. aeruginosa (CiproR)): 8 µg/mL
MIC90 (P. aeruginosa (CiproR)): 16 µg/mL
MIC (P. aeruginosa (CiproR); read-out: MIC Range): 4 to 64 µg/mL
MIC50 (Enterococcus spp. (VanR)): 1 µg/mL
MIC90 (Enterococcus spp. (VanR)): 1 µg/mL
MIC (Enterococcus spp. (VanR); read-out: MIC Range): 0.06 to 4 µg/mL
MIC50 (B. fragilis): 0.25 µg/mL
MIC90 (B. fragilis): 0.25 µg/mL
MIC (B. fragilis; read-out: MIC Range): 0.12 to 0.5 µg/mL
MIC50 (C. perfringens): 0.5 µg/mL
MIC90 (C. perfringens): 1 µg/mL
MIC (C. perfringens; read-out: MIC Range): 0.25 to 1 µg/mL
MIC50 (S. aureus (CiproS)): 2 ng/mL
MIC90 (S. aureus (CiproS)): 2 ng/mL
MIC (S. aureus (CiproS); read-out: MIC Range): 0.5 to 2 ng/mL
MIC50 (P. mirabilis): 0.06 µg/mL
MIC90 (P. mirabilis): 0.12 µg/mL
MIC (P. mirabilis; read-out: MIC Range): 0.03 to 0.12 µg/mL
MIC (S. pneumoniae (CiproR)): 0.12 to 0.25 µg/mL
MIC50 (P. aeruginosa (CiproS)): 0.12 µg/mL
MIC90 (P. aeruginosa (CiproS)): 1 µg/mL
MIC (P. aeruginosa (CiproS); read-out: MIC Range): 0.03 to 2 µg/mL
MIC (Shigella spp.): 4 to 15 ng/mL
MIC (E. faecium (CiproR)): 0.5 to 4 µg/mL
